Earlier results in US20220323439A1, “URACIL DERMAL PHARMACEUTICAL FORMULATION” (NANOMETICS LLC (D.B.A PHD BIOSCIENCES), priority 2019, published 2022).

Details: oral uracil 500 mg/m^2

Cmax of uracil after oral administration: 20000 ng/mL
SMILES: O=c1cc[nH]c(=O)[nH]1 [uracil, Uracil]
